Measurements taken from PMC6156755, “Using Human Plasma as an Assay Medium in Caco-2 Studies Improves Mass Balance for Lipophilic Compounds” (Pharmaceutical Research, 2018).
Read-outs that look alike come from different tables or passages of the source. Marks after values point to notes of the source that are not given here.

Assays:
[1] = in vitro; details: human; for Papp A→B: Caco-2, pH 7.4, Papp A-B; for Papp B→A: Caco-2, pH 7.4, Papp B-A
[2] = tested on: Caco-2 cell monolayer; assay: Caco-2 permeability assay with pH 7.4 buffer or human plasma in both chambers; details: for Permeability Classification: criteria of Table V; for Mass balance: both directions (where assessed) and both media
[3] = as above; details: human; for efflux ratio: Caco-2, pH 7.4, Efflux ratio (B-A/A-B)
[4] = Human plasma protein binding (ultracentrifugation or rapid equilibrium dialysis); format: in vitro ADME; details: for fraction unbound / fraction unbound at 6 h: pH 7.4, read-out: fu (fraction unbound in plasma); for fraction unbound: neat human plasma, 37°C, concentration comparable to Caco-2 assay
Protocol: Binding was assessed using one of two methods: ultracentrifugation ([31]) using neat human plasma or rapid equilibrium dialysis (RED) using either neat or diluted plasma. […] To allow analysis with a single calibration curve, the total plasma and protein-free supernatant samples were ‘matrix-matched’ by taking aliquots of protein-free supernatant samples and adding to fresh tubes containing an equal volume of blank plasma, or taking aliquots of the total plasma samples and adding to fresh tubes containing an equal volume of Dulbecco’s phosphate-buffered saline (DPBS). In this way, the final composition of both the protein-free supernatant samples and the total plasma samples were ‘matched’ prior to the analysis against a common calibration curve prepared in a 1:1 mixture of human plasma and DPBS. All samples were then stored frozen at −80°C until analysis.
The holding plate was then placed on a plate shaker (set at 800 rpm; ThermoMixer C, Eppendorf) and maintained at 37°C under a 2% CO2 atmosphere. The dialysis was conducted for 6 h, assuming steady state was achieved by the end of this period ([32]). Samples were then removed from both the donor and dialysate chambers of each RED insert. […] Samples were matrix matched as described above (but using PBS buffer instead of DPBS) and stored at −80°C until analysis.
For the more lipophilic compounds with potential for very high binding, the RED method was used with diluted plasma to increase the chance of detecting concentrations in the dialysate samples. Diluted human plasma (10% v/v in pH 7.4 phosphate buffered saline) was spiked with each compound (at 10% of the concentration used for the Caco-2 experiment with neat plasma) and binding conducted as described above. The binding in neat plasma was then calculated by correcting for the dilution as described below.
For binding measurements in neat plasma by ultracentrifugation, the fraction unbound (fu) was calculated from the ratio of the average unbound concentration in protein free supernate (Cunbound) to the average total concentration in non-centrifuged plasma (Ctotal). The standard deviation (SD) for the fu value was calculated using the propagation of errors approach as described previously ([33]). For binding measurements using the RED method in neat plasma, fu was calculated from the ratio of the dialysate to total plasma concentration for each dialysis unit and the mean and SD calculated for replicate units (n = 3).
For RED binding assessments using 10% plasma, the fu − diluted for individual dialysis units was calculated in the same way as described above.

[5] = cited from earlier work
[6] = tested on: Caco-2 cell monolayer
[7] = buffer (HBSS/HEPES pH 7.4) in both chambers
[8] = Caco-2, pH 7.4, Papp A-B, buffer pH 7.4 in both chambers
[9] = Caco-2, pH 7.4, Papp B-A, buffer pH 7.4 in both chambers
[10] = human, values from the literature
[11] = Caco-2, pH 7.4, Papp A-B, human plasma in both chambers, corrected for fu in donor
[12] = Caco-2, pH 7.4, Papp B-A, human plasma in both chambers, corrected for fu in donor
[13] = RED with diluted human plasma (10% v/v), corrected for dilution, < values from LLOQ

Row | Molecule | Mass balance A-B [2, 7] | Permeability Classification ([2]; buffer pH 7.4) | Mass balance B-A ([2]; buffer pH 7.4 in both chambers) | Mass balance A-B ([2]; human plasma in both chambers) | Mass balance B-A ([2]; human plasma in both chambers) | Permeability Classification ([2]; human plasma) | Papp A→B [3, 8] | Papp B→A [3, 9] | fraction unbound [4] | Human FA (fraction absorbed) [5, 10] | Papp A→B [3, 11] | also measured
1 | CCN(CC)Cc1cc(Nc2ccnc3cc(Cl)ccc23)ccc1O [Amodiaquine, amodiaquine] | 33 ± 1.7% | Intermediate | 93 ± 4.0% | 81 ± 6.1^b % | 88 ± 4.6% | High (Papp ≥ 8.15) | 4.5 ± 0.12 ×10⁻⁶ cm/s | 7.1 ± 1.9 ×10⁻⁶ cm/s | 0.12 |  |  | Papp A→B [1]: 90 ± 8.3 ×10⁻⁶ cm/s; Papp B→A [1]: 63 ± 9.6 ×10⁻⁶ cm/s; efflux ratio ([3]; buffer pH 7.4 in both chambers): 1.6 ± 0.43; efflux ratio ([3]; human plasma in both chambers): 0.7 ± 0.12
2 | CC(C)NCC(O)COc1ccc(CC(N)=O)cc1 (stereo not drawn) [Atenolol, atenolol] |  |  |  |  |  |  |  |  |  | 55% |  | 
3 | O=C1C(O)=C([C@H]2CC[C@H](c3ccc(Cl)cc3)CC2)C(=O)c2ccccc21 [Atovaquone, atovaquone] | <10% | Low (Papp < 0.839) | <10% | 99 ± 1.2% | 97 ± 2.3% | High (Papp ≥ 8.15) |  |  |  |  | > 300 ×10⁻⁶ cm/s | Mass balance A-B ([2]; buffer (HBSS/HEPES pH 7.4) in both chambers, listed as atovaquone): < 10%; Mass balance B-A ([2]; buffer pH 7.4 in both chambers, listed as atovaquone): < 10%; Papp ([3]; Caco-2, pH 7.4): > 300 ×10⁻⁶ cm/s; Papp B→A [3, 12]: > 300 ×10⁻⁶ cm/s; fraction unbound at 6 h [4, 13]: < 0.0002
4 | CCN(CC)CCCC(C)Nc1ccnc2cc(Cl)ccc12 (stereo not drawn) [Chloroquine, chloroquine] |  | High (Papp ≥ 4.90) |  |  |  | High (Papp ≥ 8.15) |  |  |  |  |  | Permeability Classification ([2]; buffer pH 7.4, listed as chloroquine): high; Permeability Classification ([2]; human plasma, listed as chloroquine): high
5 | CN/C(=N/CCSCc1nc[nH]c1C)NC#N [Cimetidine, cimetidine] |  |  |  |  |  |  | 1.7 ± 0.45 ×10⁻⁶ cm/s |  | 0.76 | 64% |  | Papp A→B [1]: 1.9 ± 0.26 ×10⁻⁶ cm/s; Mass balance [2]: > 80%
6 | CCCCN(CCCC)CCC(O)c1cc2c(Cl)cc(Cl)cc2c2cc(C(F)(F)F)ccc12 (stereo not drawn) [Halofantrine, halofantrine] | <10% | Low (Papp < 0.839) | <10% | 83 ± 7.6% | 87 ± 4.4% | High (Papp ≥ 8.15) |  |  |  |  |  | Mass balance A-B ([2]; buffer (HBSS/HEPES pH 7.4) in both chambers, listed as halofantrine): < 10%; Mass balance B-A ([2]; buffer pH 7.4 in both chambers, listed as halofantrine): < 10%; Papp ([3]; Caco-2, pH 7.4): > 300 ×10⁻⁶ cm/s; Papp A→B ([3]; Caco-2, pH 7.4): > 300 ×10⁻⁶ cm/s; Papp B→A ([3]; Caco-2, pH 7.4): > 300 ×10⁻⁶ cm/s; fraction unbound at 6 h [4, 13]: < 0.0001
7 | OC(c1cc(C(F)(F)F)nc2c(C(F)(F)F)cccc12)C1CCCCN1 (stereo not drawn) [Mefloquine, mefloquine] | 15 ± 2.6% | Intermediate | 86 ± 6.7% | 70 ± 2.6^b % | 86 ± 3.1% | High (Papp ≥ 8.15) | 2.1 ± 0.65 ×10⁻⁶ cm/s | 4.7 ± 0.35 ×10⁻⁶ cm/s |  |  |  | Papp A→B [1]: 180 ± 20 ×10⁻⁶ cm/s; Papp B→A [1]: 150 ± 10 ×10⁻⁶ cm/s; Mass balance A-B ([2]; human plasma in both chambers, listed as mefloquine): 60–70%; efflux ratio ([3]; buffer pH 7.4 in both chambers): 2.2 ± 0.7; efflux ratio ([3]; human plasma in both chambers): 0.83 ± 0.11; fraction unbound at 6 h [4, 13]: 0.015
8 | COCCc1ccc(OCC(O)CNC(C)C)cc1 (stereo not drawn) [Metoprolol, metoprolol] |  |  |  |  |  |  | 50 ± 6.1 ×10⁻⁶ cm/s |  | 0.7 |  |  | Papp A→B [1]: 57 ± 5.8 ×10⁻⁶ cm/s
9 | CC(C)(C)NCc1cc(Nc2ccnc3cc(Cl)ccc23)c2c(c1O)CCCC2 [Naphthoquine, naphthoquine] |  |  |  |  |  |  |  |  |  |  |  | Efflux ratio (B-A/A-B) ([6]; Caco-2): 0.78 ± 0.12; Mass balance B-A ([6]; Caco-2): 94 ± 14%; Papp A-B ([6]; Caco-2): 230 ± 32^b 10^−6 cm/s; Papp B-A ([6]; Caco-2): 180 ± 10^b 10^−6 cm/s; Efflux ratio (B-A/A-B) ([6]; Caco-2, pH 7.4): 2.0 ± 1.3; Mass balance A-B ([6]; Caco-2, pH 7.4): 31 ± 7.2%; Mass balance B-A ([6]; Caco-2, pH 7.4): 70 ± 10%; Papp A-B ([6]; Caco-2, pH 7.4): 2.2 ± 1.3 10^−6 cm/s; Papp B-A ([6]; Caco-2, pH 7.4): 4.5 ± 1.4 10^−6 cm/s; Permeability Classification ([6]; Caco-2, pH 7.4): Intermediate; fu (fraction unbound in plasma) [4, 13]: 0.019 ^e
10 | COc1ccc2cc([C@H](C)C(=O)O)ccc2c1 [Naproxen, naproxen] |  |  |  |  |  |  |  |  |  | 100% |  | 
11 | CC(=O)Nc1ccc(O)cc1 [Paracetamol, paracetamol] | 92 ± 3.8% |  |  | 92 ± 0.58% |  |  | 32 ± 2.9 ×10⁻⁶ cm/s |  | 0.86 | 90% | 37 ± 4 ×10⁻⁶ cm/s | 
12 | Clc1ccc2c(N3CCN(CCCN4CCN(c5ccnc6cc(Cl)ccc56)CC4)CC3)ccnc2c1 [Piperaquine, piperaquine] | <10% | Low (Papp < 0.839) | <10% | 100 ± 8.1% | 100 ± 5.8% | High (Papp ≥ 8.15) |  |  |  |  | > 300 ×10⁻⁶ cm/s | Mass balance A-B ([2]; buffer (HBSS/HEPES pH 7.4) in both chambers, listed as piperaquine): < 10%; Mass balance B-A ([2]; buffer pH 7.4 in both chambers, listed as piperaquine): < 10%; Papp ([3]; Caco-2, pH 7.4): > 300 ×10⁻⁶ cm/s; Papp B→A [3, 12]: > 300 ×10⁻⁶ cm/s; fraction unbound at 6 h [4, 13]: < 0.001
13 | CC(C)NCC(O)COc1cccc2ccccc12 (stereo not drawn) [Propranolol, propranolol] |  |  | 97 ± 0.58% |  | 99 ± 2.3% |  | 58 ± 4.5 ×10⁻⁶ cm/s | 52 ± 4 ×10⁻⁶ cm/s | 0.25 |  |  | Increase in Papp using plasma compared to buffer ([6]; human, Caco-2, pH 7.4): 2-3 fold; Papp A→B [1]: 120 ± 35 ×10⁻⁶ cm/s; Papp B→A [1]: 110 ± 19 ×10⁻⁶ cm/s
14 | CNC(=C[N+](=O)[O-])NCCSCc1ccc(CN(C)C)o1 [Ranitidine, ranitidine] | 97 ± 11% |  |  | 92 ± 7.2% |  |  | 0.99 ± 0.11 ×10⁻⁶ cm/s |  | 0.92 | 50% | 2.1 ± 0.058 ×10⁻⁶ cm/s | Mass balance [2]: > 80%
15 | COC(=O)c1ccccc1-c1c2ccc(=N)cc-2oc2cc(N)ccc12 [Rhodamine 123, rhodamine 123] | 99 ± 11% |  | 99 ± 1.2% | 98 ± 1.5% | 92 ± 4.7% |  | 1.6 ± 0.32 ×10⁻⁶ cm/s | 9.7 ± 1.1 ×10⁻⁶ cm/s | 0.35 |  | 1.2 ± 0.058 ×10⁻⁶ cm/s | efflux ratio ([3]; buffer pH 7.4 in both chambers): 6.1 ± 1.4; efflux ratio ([3]; human plasma in both chambers): 12 ± 1.4; Papp B→A [3, 12]: 14 ± 1.5 ×10⁻⁶ cm/s
16 | CC(C)(C)NC(=O)[C@@H]1C[C@@H]2CCCC[C@@H]2CN1C[C@@H](O)[C@H](Cc1ccccc1)NC(=O)[C@H](CC(N)=O)NC(=O)c1ccc2ccccc2n1 [Saquinavir] | 76 ± 0.58% |  | 60 ± 5.6% | 100 ± 7.2^b % | 110 ± 7.5^b % |  | 2.4 ± 1.4 ×10⁻⁶ cm/s | 34 ± 2.1 ×10⁻⁶ cm/s | 0.04 |  | 8.4 ± 2.5 ×10⁻⁶ cm/s | Papp B→A [3, 12]: 140 ± 42 ×10⁻⁶ cm/s
17 | CC(C)(C)NCC(O)COc1ccc(NC(=O)NC2CCCCC2)cc1 (stereo not drawn) [Talinolol, talinolol] |  |  |  |  |  |  |  |  | 0.48 |  |  | 
18 | OC[C@@H](O)[C@@H](O)[C@H](O)[C@H](O)CO [^14C-Mannitol, D-[1-^14C]-mannitol] | 99 ± 2.3% |  | 99 ± 1.7% | 96 ± 4.0% | 97 ± 5.2% |  | 0.29 ± 0.051 ×10⁻⁶ cm/s | 0.56 ± 0.026 ×10⁻⁶ cm/s | 0.83 | 26% | 0.31 ± 0.081 ×10⁻⁶ cm/s | Mass balance [2]: > 80%; efflux ratio ([3]; buffer pH 7.4 in both chambers): 1.9 ± 0.35; efflux ratio ([3]; human plasma in both chambers): 1.4 ± 0.37; Papp B→A [3, 12]: 0.43 ± 0.021 ×10⁻⁶ cm/s
19 | lucifer yellow |  |  |  |  |  |  |  |  |  |  |  | Human FA (fraction absorbed) ([5]; in vivo): 0%; Mass balance ([6]; Caco-2): > 80%; Mass balance A-B ([6]; Caco-2): 98 ± 4.7%; Papp A-B ([6]; Caco-2): 0.17 ± 0.069 10^−6 cm/s; Mass balance A-B ([6]; Caco-2, pH 7.4): 86 ± 6.7%; Papp A-B ([6]; Caco-2, pH 7.4): 0.21 ± 0.085 10^−6 cm/s; fu (fraction unbound in plasma) ([4]; human, plasma): 0.51
